Test results: patent US20220274979A1 (Bayer Pharma Aktiengesellschaft, priority 2018, published 2022)

Target: T1, Epidermal Growth Factor Receptor (EGFR) (Homo sapiens, UniProt P00533)
T1 construct: purchased Sigma-Aldrich E3641
Assay: EGFR kinase assay (TR-FRET)
Assay type: biochemical
Conditions: 10 μM ATP; read-out: EGFR kinase inhibition IC50
Summary of the method: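 EGFR purified from A431 cells pre-incubated 15 min with compound, then reacted 20 min at 22 °C with 10 μM ATP and 1 μM biotinylated peptide (final) in HEPES pH 7.0 with Mg2+/Mn2+. Phosphopeptide detected by TR-FRET (Tb anti-phosphotyrosine/streptavidin-XL665), 665/620 nm emission ratio.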

T1 sequence (P00533 25-1210): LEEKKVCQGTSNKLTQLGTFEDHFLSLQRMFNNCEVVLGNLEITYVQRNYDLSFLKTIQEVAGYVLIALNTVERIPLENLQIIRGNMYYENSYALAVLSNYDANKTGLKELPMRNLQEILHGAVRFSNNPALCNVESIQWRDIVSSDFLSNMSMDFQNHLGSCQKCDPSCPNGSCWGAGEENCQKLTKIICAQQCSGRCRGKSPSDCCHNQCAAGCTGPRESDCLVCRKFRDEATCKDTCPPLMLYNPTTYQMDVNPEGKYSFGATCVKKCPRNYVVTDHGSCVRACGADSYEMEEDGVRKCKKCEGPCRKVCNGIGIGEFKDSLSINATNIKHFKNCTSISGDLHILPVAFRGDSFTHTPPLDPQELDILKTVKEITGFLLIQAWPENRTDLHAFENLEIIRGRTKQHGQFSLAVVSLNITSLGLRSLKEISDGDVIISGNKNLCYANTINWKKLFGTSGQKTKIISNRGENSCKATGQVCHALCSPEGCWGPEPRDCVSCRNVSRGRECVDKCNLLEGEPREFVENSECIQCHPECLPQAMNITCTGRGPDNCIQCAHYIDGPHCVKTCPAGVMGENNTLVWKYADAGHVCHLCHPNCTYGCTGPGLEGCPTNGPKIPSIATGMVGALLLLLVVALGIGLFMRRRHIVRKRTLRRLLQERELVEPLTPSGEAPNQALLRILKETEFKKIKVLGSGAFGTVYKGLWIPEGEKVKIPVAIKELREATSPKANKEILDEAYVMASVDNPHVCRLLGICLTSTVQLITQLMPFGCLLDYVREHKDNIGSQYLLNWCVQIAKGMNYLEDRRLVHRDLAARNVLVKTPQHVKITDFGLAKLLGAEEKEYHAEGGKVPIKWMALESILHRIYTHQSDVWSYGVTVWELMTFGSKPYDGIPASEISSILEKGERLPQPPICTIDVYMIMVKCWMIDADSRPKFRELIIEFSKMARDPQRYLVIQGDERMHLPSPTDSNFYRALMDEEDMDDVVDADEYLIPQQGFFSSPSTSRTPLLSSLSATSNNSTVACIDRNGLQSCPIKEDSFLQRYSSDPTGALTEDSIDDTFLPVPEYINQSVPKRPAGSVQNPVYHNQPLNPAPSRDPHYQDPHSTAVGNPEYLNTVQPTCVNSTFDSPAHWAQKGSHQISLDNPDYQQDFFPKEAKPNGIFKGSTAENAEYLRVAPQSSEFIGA

Structure (SMILES)	IC50
Cc1nc(N[C@H](C)c2cccc(Br)c2)c2cc(NCCS(C)(=O)=O)ncc2n1 [Example 83]	> 20 µM
Cc1nc(N[C@H](C)c2cccc(Br)c2)c2cc(NCCn3ccnc3)ncc2n1 [Example 84, N4-[(1R)-1-(3-bromophenyl)ethyl]-N6-[2-(1H-imidazol-1-yl)ethyl]-2-methylpyrido[3,4-d]pyrimidine-4,6-diamine]	> 20 µM
Cc1nc(NC(C)c2ccc(-c3ccccc3CN(C)C)s2)c2cc(NCC3CCNC(=O)C3)ncc2n1 (stereo not drawn) [Example 86, 4-{[(4-{[1-(5-{2-[(dimethylamino)methyl]phenyl}thiophen-2-yl)ethyl]amino}-2-methylpyrido[3,4-d]pyrimidin-6-yl)amino]methyl}piperidin-2-one]	> 20 µM
Cc1nc(NC(C)c2ccc(-c3ccccc3CN(C)C)s2)c2cc(N3CC(NC(=O)CCCn4c(-c5ccccn5)nc(C)c4C)C3)ncc2n1 (stereo not drawn) [Example 87, N-[1-(4-{[1-(5-{2-[(dimethylamino)methyl]phenyl}thiophen-2-yl)ethyl]amino}-2-methylpyrido[3,4-d]pyrimidin-6-yl)azetidin-3-yl]-4-[4,5-dimethyl-2-(pyridin-2-yl)-1H-imidazol-1-yl]butanamide]	> 20 µM
Cc1nc(NC(C)c2ccc(-c3ccccc3CN(C)C)s2)c2cc(N3CC(NC(=O)c4ccccc4)C3)ncc2n1 (stereo not drawn) [Example 88, N-[1-(4-{[1-(5-{2-[(dimethylamino)methyl]phenyl}thiophen-2-yl)ethyl]amino}-2-methylpyrido[3,4-d]pyrimidin-6-yl)azetidin-3-yl]benzamide]	> 20 µM
Cc1nc(NC(C)c2ccc(-c3ccccc3CN(C)C)s2)c2cc(N3CC(NC(=O)Cc4ccccc4)C3)ncc2n1 (stereo not drawn) [Example 89, N-[1-(4-{[1-(5-{2-[(dimethylamino)methyl]phenyl}thiophen-2-yl)ethyl]amino}-2-methylpyrido[3,4-d]pyrimidin-6-yl)azetidin-3-yl]-2-phenylacetamide]	> 20 µM
Cc1nc(NC(C)c2ccc(-c3ccccc3CN(C)C)s2)c2cc(N3CC(NC(=O)C4CCCCC4)C3)ncc2n1 (stereo not drawn) [Example 90, N-[1-(4-{[1-(5-{2-[(dimethylamino)methyl]phenyl}thiophen-2-yl)ethyl]amino}-2-methylpyrido[3,4-d]pyrimidin-6-yl)azetidin-3-yl]cyclohexanecarboxamide]	> 20 µM
Cc1nc(NC(C)c2ccc(-c3ccccc3CN(C)C)s2)c2cc(N3CC(NC(=O)CC4CC4)C3)ncc2n1 (stereo not drawn) [Example 91, 2-cyclopropyl-N-[1-(4-{[1-(5-{2-[(dimethylamino)methyl]phenyl}thiophen-2-yl)ethyl]amino}-2-methylpyrido[3,4-d]pyrimidin-6-yl)azetidin-3-yl]acetamide]	> 20 µM
Cc1nc(NC(C)c2ccc(-c3ccccc3CN(C)C)s2)c2cc(N3CC(N)C3)ncc2n1 (stereo not drawn) [Example 93, 6-(3-aminoazetidin-1-yl)-N-[1-(5-{2-[(dimethylamino)methyl]phenyl}thiophen-2-yl)ethyl]-2-methylpyrido[3,4-d]pyrimidin-4-amine]	> 20 µM
Cc1nc(NC(C)c2ccc(-c3ccccc3CN(C)C)s2)c2cc(N3CC(NS(=O)(=O)c4ccccc4)C3)ncc2n1 (stereo not drawn) [Example 94, N-[1-(4-{[1-(5-{2-[(dimethylamino)methyl]phenyl}thiophen-2-yl)ethyl]amino}-2-methylpyrido[3,4-d]pyrimidin-6-yl)azetidin-3-yl]benzenesulfonamide]	> 20 µM
Cc1nc(NC(C)c2ccc(-c3ccccc3CN(C)C)s2)c2cc(N3CC(NS(=O)(=O)Cc4ccccc4)C3)ncc2n1 (stereo not drawn) [Example 95, N-[1-(4-{[1-(5-{2-[(dimethylamino)methyl]phenyl}thiophen-2-yl)ethyl]amino}-2-methylpyrido[3,4-d]pyrimidin-6-yl)azetidin-3-yl]-1-phenylmethanesulfonamide]	> 20 µM
Cc1nc(NC(C)c2ccc(-c3ccccc3CN(C)C)s2)c2cc(N3CC(NC(=O)Nc4ccccc4)C3)ncc2n1 (stereo not drawn) [Example 96, 1-[1-(4-{[1-(5-{2-[(dimethylamino)methyl]phenyl}thiophen-2-yl)ethyl]amino}-2-methylpyrido[3,4-d]pyrimidin-6-yl)azetidin-3-yl]-3-phenylurea]	> 20 µM
